Results from the supplement of paper PMC10307832.

Key:
Assay in all cases: relative viability (nuclei count vs DMSO), 5 days (fraction); higher = more cells survive
[1] = compound: CCCS(=O)(=O)Nc1ccc(F)c(C(=O)c2c[nH]c3ncc(-c4ccc(Cl)cc4)cc23)c1F [Vemurafenib] + O=C(CCCCCCC(=O)Nc1ccccc1)NO [Vorinostat] (partner 1 µM)
Summary of the method: (§1)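 The day after seeding in 1536-well plates, lung cancer cell lines were treated by pin tool with a single drug, or with a fixed anchor-drug dose together with five library-drug doses (not always all listed) in √10 steps. After 5 days, a combined fix-and-stain solution (final 0.05% Triton X-100, 1% formaldehyde, 1 ug/ml Hoechst) was added. Nuclei counted on 4× images gave relative viability as treated counts over vehicle counts, reported as the median of duplicate plates.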

[2] = compound: COc1cccc2cc(-c3nc([C@H]4CC[C@H](C(=O)O)CC4)n4ncnc(N)c34)[nH]c12 [OSI-027] + CS(=O)(=O)N1CCN(Cc2cc3nc(-c4cccc5[nH]ncc45)nc(N4CCOCC4)c3s2)CC1 [Pictilisib] (partner 1 µM)
Summary of the method: as §1

[3] = compound: Cc1nc(NC(=O)N2CCC[C@H]2C(N)=O)sc1-c1ccnc(C(C)(C)C(F)(F)F)c1 [Alpelisib] + COc1cccc2cc(-c3nc([C@H]4CC[C@H](C(=O)O)CC4)n4ncnc(N)c34)[nH]c12 [OSI-027] (partner 0.5 µM)
Summary of the method: as §1

[4] = compound: Cc1nc(NC(=O)N2CCC[C@H]2C(N)=O)sc1-c1ccnc(C(C)(C)C(F)(F)F)c1 [Alpelisib] + Nc1nc2[nH]cc(CCc3ccc(C(=O)N[C@@H](CCC(=O)O)C(=O)O)cc3)c2c(=O)[nH]1 [Pemetrexed] (partner 0.2 µM)
Summary of the method: as §1

Cell Line | relative viability ([1]; first compound 0.03162 µM) | relative viability ([1]; first compound 0.1 µM) | relative viability ([1]; first compound 0.3162 µM) | relative viability ([1]; first compound 1 µM) | relative viability ([2]; first compound 0.01 µM) | relative viability ([2]; first compound 0.03162 µM) | relative viability ([2]; first compound 0.1 µM) | relative viability ([2]; first compound 0.3162 µM) | relative viability ([2]; first compound 1 µM) | relative viability ([3]; first compound 0.04 µM) | relative viability ([3]; first compound 0.1265 µM) | relative viability ([3]; first compound 0.4 µM) | relative viability ([3]; first compound 1.265 µM) | relative viability ([3]; first compound 4 µM) | relative viability ([4]; first compound 0.04 µM) | relative viability ([4]; first compound 0.1265 µM) | relative viability ([4]; first compound 0.4 µM) | relative viability ([4]; first compound 1.265 µM) | relative viability ([4]; first compound 4 µM)
ABC-1 | 1.06 | 0.972 | 0.831 | 1.45 | 0.627 | 0.653 | 0.632 | 0.445 | 0.319 | 0.475 | 0.347 | 0.418 | 0.283 | 0.356 |  |  |  |  | 
NCI-H1299 |  |  |  |  | 0.787 | 0.627 | 0.548 | 0.338 | 0.242 |  |  |  |  |  |  |  |  |  | 
LU99A | 0.513 | 0.578 |  | 0.466 | 0.315 | 0.294 | 0.259 | 0.18 | 0.189 | 0.306 | 0.3 | 0.296 | 0.234 | 0.224 | 0.187 | 0.188 | 0.193 | 0.154 | 0.159
NCI-H2009 | 0.813 | 0.731 | 0.715 | 0.665 | 0.885 | 0.729 | 0.7 | 0.46 | 0.405 | 0.602 | 0.574 | 0.655 | 0.428 | 0.429 | 0.987 | 1.03 | 1.08 | 1.01 | 0.968
LCLC-97TM1 |  | 0.74 | 0.777 | 0.42 | 0.211 | 0.208 | 0.199 | 0.116 | 0.126 | 0.434 | 0.391 | 0.243 | 0.181 | 0.1 | 0.177 | 0.17 | 0.183 | 0.174 | 0.127
NCI-H1915 | 0.468 | 0.468 | 0.455 | 0.478 | 0.947 | 0.988 | 0.78 | 0.716 | 0.572 | 0.628 | 0.597 | 0.61 | 0.558 | 0.401 | 0.498 | 0.527 | 0.525 | 0.49 | 0.428
NCI-H2342 | 0.623 | 0.785 | 0.755 | 0.787 |  |  |  |  |  | 0.626 | 0.594 | 0.553 | 0.559 | 0.421 | 0.843 | 0.77 | 0.694 | 0.686 | 0.447
EKVX | 0.712 |  | 0.745 | 0.936 | 0.456 | 0.384 | 0.368 | 0.302 | 0.177 | 0.594 | 0.531 | 0.773 | 0.496 | 0.356 | 0.411 | 0.406 | 0.461 | 0.341 | 0.349
HCC-78 | 0.425 | 0.351 | 0.79 | 0.4 | 0.202 | 0.225 | 0.184 | 0.19 | 0.207 | 0.378 | 0.306 | 0.324 | 0.335 | 0.318 | 0.854 | 0.941 | 0.951 | 0.854 | 0.887
A549 |  |  |  |  | 0.53 |  | 0.276 | 0.14 | 0.142 |  |  |  |  |  |  |  |  |  | 
NCI-H2126 | 0.761 | 0.576 | 0.869 | 0.633 | 0.519 | 0.487 | 0.455 | 0.419 | 0.407 | 0.796 | 0.67 | 0.667 | 0.576 | 0.38 | 0.686 | 0.752 | 0.674 | 0.584 | 0.509
HCC-827 | 0.796 |  | 0.663 | 0.816 | 0.9 | 0.76 | 0.891 | 0.878 | 0.483 | 0.808 | 0.803 | 0.689 | 0.57 | 0.384 | 0.277 | 0.285 | 0.278 | 0.225 | 0.143
NCI-H1650 | 0.466 | 0.477 | 0.682 | 0.485 | 0.551 | 0.553 | 0.474 | 0.432 | 0.347 | 0.637 | 0.561 | 0.529 | 0.433 | 0.374 | 0.434 | 0.354 | 0.337 | 0.335 | 0.353
NCI-H1703 |  |  |  |  | 0.318 | 0.242 | 0.244 | 0.231 | 0.201 |  |  |  |  |  |  |  |  |  | 
LK-2 | 0.261 | 0.271 | 0.3 | 0.247 | 0.627 | 0.474 | 0.305 | 0.251 | 0.23 | 0.215 | 0.208 | 0.16 | 0.142 | 0.158 | 0.247 | 0.252 | 0.213 | 0.209 | 0.199
PC-14 | 0.72 |  | 0.643 | 0.655 | 0.526 | 0.719 | 0.722 | 0.544 | 0.171 | 0.865 | 0.83 | 0.985 | 0.574 | 0.467 | 0.157 | 0.145 | 0.134 | 0.137 | 0.138
EBC-1 |  |  |  |  | 0.344 | 0.359 | 0.299 | 0.216 | 0.238 |  |  |  |  |  |  |  |  |  | 
SW 900 | 0.41 | 0.466 | 0.636 | 0.379 |  |  |  |  |  | 0.527 | 0.524 | 0.742 | 0.568 | 0.45 | 0.513 |  | 0.476 | 0.497 | 0.405
NCI-H1563 |  |  |  |  | 0.619 | 0.625 | 0.604 | 0.631 | 0.673 | 0.743 | 0.774 | 0.7 | 0.584 | 0.541 | 0.857 | 0.579 | 0.662 | 0.622 | 0.567
NCI-H522 | 0.901 | 0.846 | 0.835 | 0.714 |  |  |  |  |  | 0.722 | 0.622 | 0.605 | 0.629 | 0.5 | 1.07 | 1.03 | 1.1 | 0.946 | 0.72
NCI-H1623 |  |  |  |  |  |  |  |  |  | 0.494 | 0.338 | 0.383 | 0.34 | 0.28 |  |  |  |  | 
NCI-H1792 |  |  |  |  | 0.288 | 0.166 | 0.213 | 0.161 | 0.232 | 0.653 | 0.866 | 0.677 | 0.44 | 0.292 | 0.897 | 0.479 | 0.992 | 0.688 | 0.462
